Data: patent US5574166A, “Crystalline form of 2-(2-hydroxy-3-α-cumyl-5-tert-octylphenyl)-2H-benzotriazole” (Ciba-Geigy Corporation, priority 1995, dated 1996)
“Also recorded” adds a separate entry of the source.

Key:
[1] = Photostability of UV absorber in gelatine layer on polyester base (Example 21); type: physicochemical; conditions: for photostability (in words): 30-120 kJ/cm^2 exposure; for Dmax (maximum density in the range 330-380 nm): before exposure, gelatine layer
Protocol: The amount of UV absorber shown in the table below is dissolved in 2 ml of ethyl acetate. 1 ml of this solution is mixed with 9 ml of an aqueous gelatine solution [comprising 27.6 g/l of gelatine and 6.8 g/l of an 8% aqueous solution of 4,8-diisobutylnaphthalene-2-sulfonic acid (sodium salt) as wetting agent]. This mixture is emulsified for 3 minutes by means of ultrasound. 7.5 ml of this UV absorber emulsion are mixed with 4.5 ml of an aqueous curing agent solution (comprising 0.24% of 2-hydroxy-4,6-dichloro-s-triazine, potassium salt). 8 ml of this emulsion are poured onto a polyester base (13×18 cm). The casting is cured for 7 days at room temperature. A UV spectrometer is then used to determine the values for the maximum density in the range from 330-380 nm. The sample is then exposed in an Arias exposure unit with a total of 30, 60, 90 and 120 kJ/cm^2, the maximum density is remeasured, and the difference (-ΔD in %) between the corresponding values is calculated.

[2] = Solubility of benzotriazole UV absorbers in organic solvents (percent solids of saturated filtrate, ASTM D 2369-81); conditions: for Solubility in organic solvents (in words): organic / coatings solvents
Protocol: The relative solubility of three different benzotriazole UV absorbers in a five typical organic solvents is measured by dissolving the benzotriazole UV absorber in 50-100 mL of five different solvents till the solutions become supersaturated. This is seen when the benzotriazole begins to settle to the bottom of the test flask. The supersaturated solutions are allowed to remain undisturbed overnight. Then, the top layer is decanted and filtered. […] The higher the percent solids found indicates a more soluble benzotriazole.

[3] = Handling properties and storage stability of the solid form; type: physicochemical; conditions: apparent density
[4] = Light stabilization effectiveness (general statement); conditions: versus 2-[2-hydroxy-3,5-di(α-cumyl)phenyl]-2H-benzotriazole
[5] = Volatility of UV absorber; type: physicochemical; conditions: long-term coating uses
[6] = EXXATE ® 600 (hexyl acetate from Exxon)
[7] = PM acetate (1-methoxy-2-propyl acetate)
[8] = PM solvent (1-methoxy-2-propanol)

Compound	photostability (in words) [1]	ΔD in % ([1]; 30 KJ exposure (kJ/cm^2))	ΔD in % ([1]; 60 KJ exposure (kJ/cm^2))	ΔD in % ([1]; 90 KJ exposure (kJ/cm^2))	ΔD in % ([1]; 120 KJ exposure (kJ/cm^2))	Dmax (maximum density in the range 330-380 nm) [1]	Solubility in organic solvents (in words) [2]	Solubility [2, 6]	Solubility [2, 7]	Solubility ([2]; butyl acetate)	Solubility ([2]; methyl amyl ketone)	Solubility ([2]; xylene)	volatility [5]	further results
CCC(C)c1cc(C(C)(C)C)cc(-n2nc3ccccc3n2)c1O (stereo not drawn) [A, 2(2-hydroxy-3-sec-butyl-5-tert-butylphenyl)-2H-benzotriazole]	not as photostable as the UV absorbers D, E and F	4%	8%	16%	25%	2.0								
CCCCCCCCCCCCc1cc(C)cc(-n2nc3ccccc3n2)c1O [B, 2(2-hydroxy-3-dodecyl-5-methylphenyl)-2H-benzotriazole]	not as photostable as the UV absorbers D, E and F	5%	10%	17%	25%	2.1								
CC(C)(C)CC(C)(C)c1cc(-n2nc3ccccc3n2)c(O)c(C(C)(C)c2ccccc2)c1 [E, 2(2-hydroxy-3-cumyl-5-tert-octylphenyl)-2H-benzotriazole]		3%	4%	5%	7%	2.0	do not suffer from the solubility limitations of UV absorber D in non-HAPS solvents							
CC(C)(C)CC(C)(C)c1cc(-n2nc3ccccc3n2)c(O)c(C(C)(C)c2ccccc2)c1 [Example 2, 2-(2-Hydroxy-3-α-cumyl-5-tert-octylphenyl)-2H-benzotriazole]														flowability, meterability and storage stability ([3]; listed as Example 18): poor flowability, meterability and storage stability
CC(C)(C)CC(C)(C)c1cc(-n2nc3ccccc3n2)c(O)c(C(C)(C)c2ccccc2)c1 [Example 3, 2-(2-hydroxy-3-α-cumyl-5-tert-octylphenyl)-2H-benzotriazole]							essentially the same solubility parameters in the various solvents as seen in Example 13 for the new crystalline modification							Ease and rate of dissolution ([2]; non-HAPS solvents): dissolves much more easily and rapidly in the non-HAPS solvents; Solubility in organic solvents (in words) ([2]; listed as amorphous modification): excellent solubility characteristics
CCCCCCCCCc1cc(-n2nc3ccccc3n2)c(O)c(C(C)(C)c2ccccc2)c1 [Example 4, 2-(2-Hydroxy-3-α-cumyl-5-nonylphenyl)-2H-benzotriazole]								> 50 grams/100 solvent	> 50 grams/100 solvent	> 50 grams/100 solvent	> 50 grams/100 solvent	> 50 grams/100 solvent		Solubility ([2]; acetone): > 50 grams/100 solvent
CC(C)(C)CC(C)(C)c1cc(-n2nc3ccccc3n2)c(O)c(C(C)(C)c2ccccc2)c1 [Example 7, 2-(2-hydroxy-3-α-cumyl-5-tert-octylphenyl)-2H-benzotriazole]							soluble in environmentally friendly solvents	22 grams/100 solvent	14 grams/100 solvent	33 grams/100 solvent	33 grams/100 solvent	76 grams/100 solvent	same low volatility	flowability, meterability and storage stability ([3]; listed as compound of formula I): acceptable properties in respect to handling, apparent density, flowability, meterability and storage stability; light stabilization effectiveness [4]: superior light stabilization effectiveness; Solubility [2, 8]: 4 grams/100 solvent
CCCCCCCCCCCCc1cc(-n2nc3ccccc3n2)c(O)c(C(C)(C)c2ccccc2)c1 [Example 10, 2-(2-Hydroxy-3-α-cumyl-5-dodecylphenyl)-2H-benzotriazole]		2%	4%	5%	8%	1.9	do not suffer from the solubility limitations of UV absorber D in non-HAPS solvents	> 50 grams/100 solvent	> 50 grams/100 solvent	> 50 grams/100 solvent	> 50 grams/100 solvent	> 50 grams/100 solvent		Solubility ([2]; acetone): > 50 grams/100 solvent
CC(C)(c1ccccc1)c1cc(-n2nc3ccccc3n2)c(O)c(C(C)(C)c2ccccc2)c1 [UV absorber A, 2(2-hydroxy-3,5-di-cumylphenyl)-2H-benzotriazole]	no more stable than are UV absorbers E and F	0%	5%			1.9		4 grams/100 solvent	3 grams/100 solvent	6 grams/100 solvent	4 grams/100 solvent	14 grams/100 solvent	excellent non-volatility	Solubility in organic solvents (in words) ([2]; listed as 2-(2-hydroxy-3,5-di-α-cumylphenyl)-2H-benzotriazole): relatively insoluble; also recorded: sparingly soluble; Solubility in organic solvents (in words) ([2]; listed as 2-[2-hydroxy-3,5-di(α-cumyl)phenyl]-2H-benzotriazole): sparingly soluble in environmentally more friendly solvents; solubility in toluene or xylene ([2]; toluene or xylene): about 14 % by weight; soluble at level in xylene ([2]; xylene): ~14 % (by weight)
CCC(C)(C)c1cc(-n2nc3ccccc3n2)c(O)c(C(C)(C)CC)c1 [UV absorber B]	not as photostable as the UV absorbers D, E and F	4%	7%	12%	24%	2.1	clearly quite soluble even in the solvents other then xylene	24 grams/100 solvent	10 grams/100 solvent	27 grams/100 solvent	24 grams/100 solvent	54 grams/100 solvent	too volatile for long term coating uses	Solubility [2, 8]: 4 grams/100 solvent
